Experimental data reported in ChEMBL document CHEMBL4007498, “Design and synthesis of hybrids of diarylpyrimidines and diketo acids as HIV-1 inhibitors” (Bioorg Med Chem Lett, 2017).

Experiments:
[1] = Selectivity index, ratio of CC50 for human MT4 cells to EC50 for wild type HIV1 3B; type: toxicity; settings: read-out: Ratio CC50/EC50
[2] = Cytotoxicity against human MT4 cells assessed as decrease in cell viability after 5 days by MTT assay; type: cell-based
[3] = biological target: Human immunodeficiency virus type 1 reverse transcriptase (Human immunodeficiency virus 1, UniProt Q72547); assay: Inhibition of recombinant wild type HIV-1 reverse transcriptase p66/p51 using poly(rA)/oligo(dT)16 as template/primer after 40 mins by ELISA
[4] = system: Human immunodeficiency virus 1; assay: Antiviral activity against wild type HIV1 3B infected in human MT4 cells assessed as inhibition of viral replication after 5 days by MTT assay; type: functional, cell-based; settings: Human immunodeficiency virus 1, 3B, MT4, 120 h
[5] = system: Human immunodeficiency virus 2; assay: Antiviral activity against HIV2 ROD infected in human MT4 cells assessed as inhibition of viral replication after 5 days by MTT assay; type: functional, cell-based; settings: Human immunodeficiency virus 2, ISOLATE ROD, MT4, 120 h
[6] = system: Human immunodeficiency virus 1; assay: Antiviral activity against HIV1 harboring reverse transcriptase Y181C mutant infected in human MT4 cells assessed as inhibition of viral replication after 5 days by MTT assay; type: functional, cell-based; settings: Human immunodeficiency virus 1, MT4, 120 h
[7] = system: Human immunodeficiency virus 1; assay: Antiviral activity against HIV1 harboring reverse transcriptase Y188L mutant infected in human MT4 cells assessed as inhibition of viral replication after 5 days by MTT assay; type: functional, cell-based; settings: Human immunodeficiency virus 1, MT4, 120 h
[8] = system: Human immunodeficiency virus 1; assay: Antiviral activity against HIV1 harboring reverse transcriptase E138K mutant infected in human MT4 cells assessed as inhibition of viral replication after 5 days by MTT assay; type: functional, cell-based; settings: Human immunodeficiency virus 1, MT4, 120 h
[9] = system: Human immunodeficiency virus 1; assay: Antiviral activity against HIV1 harboring reverse transcriptase K103N mutant infected in human MT4 cells assessed as inhibition of viral replication after 5 days by MTT assay; type: functional, cell-based; settings: Human immunodeficiency virus 1, MT4, 120 h
[10] = system: Human immunodeficiency virus 1; assay: Antiviral activity against HIV1 harboring reverse transcriptase L100I mutant infected in human MT4 cells assessed as inhibition of viral replication after 5 days by MTT assay; type: functional, cell-based; settings: Human immunodeficiency virus 1, MT4, 120 h
[11] = system: Human immunodeficiency virus 1; assay: Antiviral activity against HIV1 harboring reverse transcriptase F227L/V106A double mutant infected in human MT4 cells assessed as inhibition of viral replication after 5 days by MTT assay; type: functional, cell-based; settings: Human immunodeficiency virus 1, MT4, 120 h
[12] = system: Human immunodeficiency virus 1; assay: Antiviral activity against HIV1 RES056 harboring reverse transcriptase K103N/Y181C double mutant infected in human MT4 cells assessed as inhibition of viral replication after 5 days by MTT assay; type: functional, cell-based; settings: Human immunodeficiency virus 1, RES056, MT4, 120 h

**Q.** With `O=C(O)/C(O)=C/C(=O)c1cccc(Cc2ccccc2)c1` as the molecule, how does the selectivity ratio [1] read?
**A.** The selectivity ratio was greater than 61.

**Q.** And the CC50 at 120 h [2]?
**A.** Its CC50 at 120 h is greater than 10 µM.

**Q.** What about the IC50 [3] of the same molecule?
**A.** Its IC50 is greater than 100 µM.

**Q.** What does the source list for `O=C(O)C(=O)CC(=O)c1cccc(O)c1`?
**A.** selectivity ratio [1]: < 1; CC50 at 120 h [2]: 528 µM; EC50 [4]: > 528000 nM; EC50 [5]: > 528 µM

**Q.** With `N#Cc1ccc(Nc2nccc(Oc3ccc(C(=O)CC(=O)C(=O)O)cc3)n2)cc1` as the molecule, how does the EC50 [6] read?
**A.** The EC50 was greater than 48 µM.

**Q.** What about the EC50 [7] of the same molecule?
**A.** The EC50 was greater than 48000 nM.

**Q.** And the selectivity ratio [1]?
**A.** Its selectivity ratio is 182 to 183.

**Q.** What about the CC50 at 120 h [2] of the same molecule?
**A.** The CC50 at 120 h was 42 µM.

**Q.** What about the EC50 [8] of the same molecule?
**A.** Its EC50 is 10 µM.

**Q.** And the EC50 [9]?
**A.** Its EC50 is 42 to 48 µM.

**Q.** What about the EC50 [4] of the same molecule?
**A.** Its EC50 is 230 nM.

**Q.** What about the EC50 [5] of the same molecule?
**A.** Its EC50 is greater than 28 µM.

**Q.** What about the EC50 [10] of the same molecule?
**A.** Its EC50 is greater than 48000 nM.

**Q.** What about the EC50 [11] of the same molecule?
**A.** Its EC50 is greater than 48 µM.

**Q.** And the EC50 [12]?
**A.** The EC50 was 42 to 48 µM.

**Q.** What about the IC50 [3] of the same molecule?
**A.** Its IC50 is 25.2 µM.

**Q.** What does the source list for `N#Cc1ccc(Nc2nccc(Oc3cccc(C(=O)CC(=O)C(=O)O)c3)n2)cc1`?
**A.** EC50 [6]: 50 µM; EC50 [7]: > 10000 nM; selectivity ratio [1]: 71 to 442; CC50 at 120 h [2]: 10 to 62 µM; EC50 [8]: 43 µM; EC50 [9]: 38 µM; EC50 [4]: 140 nM; EC50 [5]: > 8 µM; EC50 [10]: > 10000 nM; EC50 [11]: 59 µM; EC50 [12]: 9 to 10 µM; IC50 [3]: 5.93 µM

**Q.** For `CCOC(=O)C(=O)CC(=O)c1cccc(O)c1`, which selectivity ratio [1] is on record?
**A.** Its selectivity ratio is less than 1.

**Q.** What about the CC50 at 120 h [2] of the same molecule?
**A.** Its CC50 at 120 h is 356 to 364 µM.

**Q.** And the EC50 [4]?
**A.** Its EC50 is 356000 to 357000 nM.

**Q.** And the EC50 [5]?
**A.** Its EC50 is greater than 357 µM.

**Q.** What does the source list for `CCOC(=O)C(=O)CC(=O)c1cccc(Oc2ccnc(Nc3ccc(C#N)cc3)n2)c1`?
**A.** EC50 [6]: > 13 µM; EC50 [7]: > 13000 nM; selectivity ratio [1]: 78; CC50 at 120 h [2]: 14 µM; EC50 [8]: 10 µM; EC50 [9]: 13 to 14 µM; EC50 [4]: 180 nM; EC50 [5]: > 10 µM; EC50 [10]: > 13000 nM; EC50 [11]: > 13 µM; EC50 [12]: 13 to 14 µM; IC50 [3]: 6.06 µM

**Q.** What does the source list for `CCOC(=O)C(=O)CC(=O)c1ccc(O)cc1`?
**A.** selectivity ratio [1]: < 1; CC50 at 120 h [2]: 466 µM; EC50 [4]: > 466000 nM; EC50 [5]: > 312 µM

**Q.** For `O=C(O)C(=O)CC(=O)c1ccc(O)cc1`, which selectivity ratio [1] is on record?
**A.** Its selectivity ratio is 1.

**Q.** And the CC50 at 120 h [2]?
**A.** Its CC50 at 120 h is greater than 600 µM.

**Q.** What about the EC50 [4] of the same molecule?
**A.** The EC50 was greater than 600000 nM.

**Q.** What about the EC50 [5] of the same molecule?
**A.** Its EC50 is greater than 600 µM.

**Q.** With `CCOC(=O)C(=O)CC(=O)c1ccc(Oc2ccnc(Nc3ccc(C#N)cc3)n2)cc1` as the molecule, how does the EC50 [6] read?
**A.** The EC50 was greater than 22 µM.

**Q.** And the EC50 [7]?
**A.** The EC50 was greater than 22000 nM.

**Q.** What about the selectivity ratio [1] of the same molecule?
**A.** The selectivity ratio was 95.

**Q.** And the CC50 at 120 h [2]?
**A.** The CC50 at 120 h was 18 µM.

**Q.** And the EC50 [8]?
**A.** Its EC50 is 7 µM.

**Q.** And the EC50 [9]?
**A.** Its EC50 is 10 µM.

**Q.** And the EC50 [4]?
**A.** Its EC50 is 190 nM.

**Q.** And the EC50 [5]?
**A.** The EC50 was greater than 16 µM.

**Q.** What about the EC50 [10] of the same molecule?
**A.** The EC50 was greater than 22000 nM.

**Q.** And the EC50 [11]?
**A.** The EC50 was greater than 22 µM.

**Q.** What about the EC50 [12] of the same molecule?
**A.** Its EC50 is 18 to 22 µM.

**Q.** What about the IC50 [3] of the same molecule?
**A.** The IC50 was 5.86 µM.

**Q.** With `O=C1Nc2ccc(Cl)cc2[C@@](C#CC2CC2)(C(F)(F)F)O1` [EFAVIRENZ] as the molecule, how does the EC50 [6] read?
**A.** Its EC50 is 0.0054 µM.

**Q.** What about the EC50 [7] of the same molecule?
**A.** The EC50 was 170 nM.

**Q.** What about the selectivity ratio [1] of the same molecule?
**A.** Its selectivity ratio is 1720 to 2510.

**Q.** What about the CC50 at 120 h [2] of the same molecule?
**A.** The CC50 at 120 h was 9 to 9.3 µM.

**Q.** What about the EC50 [8] of the same molecule?
**A.** Its EC50 is 0.0047 µM.

**Q.** And the EC50 [9]?
**A.** The EC50 was 0.12 to 0.17 µM.

**Q.** What about the EC50 [4] of the same molecule?
**A.** Its EC50 is 3.7 to 5.4 nM.

**Q.** What about the EC50 [10] of the same molecule?
**A.** The EC50 was 38 nM.

**Q.** And the EC50 [11]?
**A.** Its EC50 is 0.13 µM.

**Q.** And the EC50 [12]?
**A.** The EC50 was 0.12 to 0.17 µM.

**Q.** With `Cc1cc(C#N)cc(C)c1Oc1nc(Nc2ccc(C#N)cc2)nc(N)c1Br` [ETRAVIRINE] as the molecule, how does the EC50 [7] read?
**A.** The EC50 was 22 nM.

**Q.** And the CC50 at 120 h [2]?
**A.** The CC50 at 120 h was 4.6 to 5 µM.

**Q.** What about the EC50 [8] of the same molecule?
**A.** Its EC50 is 0.015 µM.

**Q.** What about the EC50 [9] of the same molecule?
**A.** Its EC50 is 0.0036 to 0.004 µM.

**Q.** And the EC50 [4]?
**A.** Its EC50 is 3.3 nM.

**Q.** And the EC50 [11]?
**A.** The EC50 was 0.022 µM.

**Q.** And the EC50 [12]?
**A.** Its EC50 is 0.03 µM.

**Q.** For `Cc1ccnc2c1NC(=O)c1cccnc1N2C1CC1` [NEVIRAPINE], which EC50 [6] is on record?
**A.** The EC50 was greater than 15 µM.

**Q.** And the EC50 [7]?
**A.** The EC50 was greater than 15000 nM.

**Q.** What about the selectivity ratio [1] of the same molecule?
**A.** The selectivity ratio was greater than 179.

**Q.** And the CC50 at 120 h [2]?
**A.** The CC50 at 120 h was greater than 15 µM.

**Q.** What about the EC50 [8] of the same molecule?
**A.** The EC50 was 0.21 µM.

**Q.** What about the EC50 [9] of the same molecule?
**A.** The EC50 was greater than 15 µM.

**Q.** What about the EC50 [4] of the same molecule?
**A.** The EC50 was 84 nM.

**Q.** What about the EC50 [10] of the same molecule?
**A.** Its EC50 is 1800 nM.

**Q.** And the EC50 [11]?
**A.** Its EC50 is greater than 15 µM.

**Q.** And the EC50 [12]?
**A.** Its EC50 is greater than 15 µM.

**Q.** For `Cc1cn([C@H]2C[C@H](N=[N+]=[N-])[C@@H](CO)O2)c(=O)[nH]c1=O` [ZIDOVUDINE], which EC50 [6] is on record?
**A.** The EC50 was 0.0057 µM.

**Q.** And the EC50 [7]?
**A.** The EC50 was 7 nM.

**Q.** What about the selectivity ratio [1] of the same molecule?
**A.** The selectivity ratio was 971 to 974.

**Q.** What about the CC50 at 120 h [2] of the same molecule?
**A.** The CC50 at 120 h was 7 to 7.5 µM.

**Q.** And the EC50 [8]?
**A.** Its EC50 is 0.009 µM.

**Q.** And the EC50 [9]?
**A.** The EC50 was 0.016 µM.

**Q.** And the EC50 [4]?
**A.** The EC50 was 7.7 nM.

**Q.** And the EC50 [10]?
**A.** The EC50 was 5.2 nM.

**Q.** What about the EC50 [11] of the same molecule?
**A.** The EC50 was 0.0035 µM.

**Q.** And the EC50 [12]?
**A.** Its EC50 is 0.008 to 0.01 µM.
